# Data from patent publication US12286437B2, “Cardiac sarcomere inhibitors” (Cytokinetics, Inc., priority 2021, dated 2025).
# Read-outs that look alike come from different tables or passages of the source.
# Assays:
# CYP3A4 = molecular target: T1, CYP3A4 (Homo sapiens, UniProt P08684); assay: Time-dependent inhibition of CYP3A4 in human liver microsomes (testosterone and midazolam probes); assay type: in vitro ADME; conditions: for (% Activity NADPH T0)/(% Activity NADPH T30): fold change; for activity at 30 min, 25 µM / activity at 30 min, 50 µM: human, after 30 minutes incubation, read-out: % Activity NADPH T30; for activity at 30 min, 25 µM / activity at 30 min, 50 µM / activity at 0 min, 25 µM / activity at 0 min, 50 µM: pooled human liver microsomes; for activity at 0 min, 25 µM / activity at 0 min, 50 µM: human liver microsomes, time zero, read-out: % Activity NADPH T0
# T1 construct: Pooled human microsomes and selective CYP probe substrates were used; from tissue; host or cells: pooled human liver microsomes
# Description: (§1) An assessment of the time-dependent Inhibitory Potential of the test compounds against Principal Human Cytochrome P450 Isozymes using Human Liver Microsomes was also carried out using standard methods (Grimm et al, Drug Metab. Dispos., July; 37(7):1355-70. doi: 10.1124/dmd.109.026716, 2009). Pooled human microsomes and selective CYP probe substrates were used for in vitro assessment of test compounds at 25 and 50 μM as time-dependent inhibitors of […] human hepatic cytochrome P450 isozymes (CYP1A2, 2B6, 2C9, 2C19, 2D6, and 3A4). LC-MS/MS was used to quantify metabolite formation. The inhibition of each P450 enzyme in human liver microsomes was measured as the percentage decrease in the activity of marker metabolite formation as measured by LC-MS/MS compared to non-inhibited controls (=100% activity) at time zero and after 30 minutes incubation. The occurrence of any time dependent inhibition was then expressed as the fold change in enzyme activity at time zero relative to the activity after 30 minutes incubation.
# CYP2C19 = molecular target: T2, CYP2C19 (Homo sapiens, UniProt P33261); assay: Time-dependent inhibition of CYP2C19 in human liver microsomes; assay type: in vitro ADME; conditions: for (% Activity NADPH T0)/(% Activity NADPH T30): fold change; for activity at 30 min, 25 µM / activity at 0 min, 25 µM / activity at 30 min, 50 µM / activity at 0 min, 50 µM: pooled human liver microsomes, human liver microsomes; for activity at 30 min, 25 µM / activity at 30 min, 50 µM: after 30 minutes incubation, read-out: % Activity NADPH T30; for activity at 0 min, 25 µM / activity at 0 min, 50 µM: time zero, read-out: % Activity NADPH T0
# T2 construct: Pooled human microsomes and selective CYP probe substrates were used; from tissue; host or cells: pooled human liver microsomes
# Description: as §1
# CYP2C8 = molecular target: T3, CYP2C8 (Homo sapiens, UniProt P10632); assay: Time-dependent inhibition of CYP2C8 in human liver microsomes; assay type: in vitro ADME; conditions: for (% Activity NADPH T0)/(% Activity NADPH T30): fold change; for activity at 30 min, 25 µM / activity at 0 min, 25 µM / activity at 30 min, 50 µM / activity at 0 min, 50 µM: pooled human liver microsomes, human liver microsomes; for activity at 30 min, 25 µM / activity at 30 min, 50 µM: after 30 minutes incubation, read-out: % Activity NADPH T30; for activity at 0 min, 25 µM / activity at 0 min, 50 µM: time zero, read-out: % Activity NADPH T0
# T3 construct: Pooled human microsomes and selective CYP probe substrates were used; from tissue; host or cells: pooled human liver microsomes
# T3 sequence (P10632 1-490): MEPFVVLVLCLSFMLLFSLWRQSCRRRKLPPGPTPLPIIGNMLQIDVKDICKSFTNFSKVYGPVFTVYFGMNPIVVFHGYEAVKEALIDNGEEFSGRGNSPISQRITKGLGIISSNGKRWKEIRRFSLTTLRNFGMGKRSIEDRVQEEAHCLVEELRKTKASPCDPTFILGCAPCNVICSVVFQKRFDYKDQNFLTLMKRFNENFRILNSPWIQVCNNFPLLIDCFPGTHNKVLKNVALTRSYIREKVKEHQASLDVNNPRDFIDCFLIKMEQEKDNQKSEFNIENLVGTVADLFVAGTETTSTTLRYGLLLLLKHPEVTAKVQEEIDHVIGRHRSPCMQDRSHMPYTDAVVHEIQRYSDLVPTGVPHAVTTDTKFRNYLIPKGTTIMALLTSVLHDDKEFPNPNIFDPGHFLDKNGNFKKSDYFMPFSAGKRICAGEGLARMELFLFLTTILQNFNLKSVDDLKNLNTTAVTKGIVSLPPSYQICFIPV
# Description: as §1
# [1] = Dog cassette dosing pharmacokinetics; assay type: in vivo, beagle dogs; conditions: male, beagle, plasma, IV; for Vd: read-out: Vss; for half-life: read-out: t½ (converted)
# Description: Non-naïve male beagle dogs (8 months to 3 years of age, body weight 8-14 kg) sourced from Jiangsu Johnsen Bioresource CO. and/or Beijing Rixinkeji CO., LTD and/or Beijing Marshall Biotechnology CO., LTD were used in this study. All animals for IV administration had free access to food and water. The IV dose solution was prepared in 10% DMA/50% PG/40% HPβCD solution (40% w/v aqueous HPβCD) at a concentration of 0.2 mg/mL. Concentrations of IV dose was measured at the end of the study. PK parameters were calculated using the nominal dose values if the measured values were within 20% of the nominal values. Blood samples were collected by venipuncture of peripheral veins except the dosing vein at pre-dose, 5 15, 30 min, 1, 2, 4, 6, 8 and 24 h post-dose. Blood samples were centrifuged and resultant plasma was frozen for bioanalysis. Plasma samples were stored at −80° C. before analysis. Plasma samples were analyzed for compound concentrations using the LC/MS/MS method. Briefly, a 50 μL aliquot of each plasma sample was mixed with 100 μL of acetonitrile that contained an internal standard. The mixture was vortexed and centrifuged. Ten (10) μL of the resulting solution was injected onto a reverse-phase C18 column and the resultant peaks detected on a LC/MS/MS equipped with a turbo ionspray ionization source. Sample concentrations below the limit of quantification (BLQ) were treated as zero for PK calculations. PK parameters were estimated from individual animals using noncompartmental analysis of the concentration-time data (Phoenix WinNonLin software, version 64; Pharsight, Mountain View, CA). The elimination rate constant (k) was calculated as the absolute value of the slope of the linear regression of logarithm (log) of the concentration versus time for the last three data points of the concentration-time profiles. Apparent elimination half-life (t1/2) values were calculated as ln(2)/k. Area under the concentration-time curve (AUC) values were estimated using linear trapezoidal method. AUCt values were calculated from the dosing time to the last measurable concentration. AUC∞ values were calculated as the sum of the corresponding AUCt and the ratio of the last detectable concentration divided by k. Plasma clearance (CL) was calculated from Dose/AUC∞. Mean resident time extrapolated to infinity (MRT∞) was estimated by moment analysis. Vss was calculated from MRT∞×CL. Maximum concentration (Cmax) and time to reach Cmax (tmax) were recorded as observed. As this was a cross-over study, bioavailability was calculated dAUC∞,po/dAUC∞,iv×100% where dAUC was the dose normalized AUC value from the same animal given IV and PO dose. Data for compounds tested are provided in Table G. Compounds tested were prepared in accordance with the synthetic procedures described herein.
# [2] = CYP3A4-M (midazolam probe substrate), 25 μM
# [3] = CYP3A4-M (midazolam probe substrate), 50 μM
# [4] = CYP3A4-T (testosterone probe substrate), 25 μM
# [5] = CYP3A4-T (testosterone probe substrate), 50 μM
# T1 sequence (P08684 whole entry): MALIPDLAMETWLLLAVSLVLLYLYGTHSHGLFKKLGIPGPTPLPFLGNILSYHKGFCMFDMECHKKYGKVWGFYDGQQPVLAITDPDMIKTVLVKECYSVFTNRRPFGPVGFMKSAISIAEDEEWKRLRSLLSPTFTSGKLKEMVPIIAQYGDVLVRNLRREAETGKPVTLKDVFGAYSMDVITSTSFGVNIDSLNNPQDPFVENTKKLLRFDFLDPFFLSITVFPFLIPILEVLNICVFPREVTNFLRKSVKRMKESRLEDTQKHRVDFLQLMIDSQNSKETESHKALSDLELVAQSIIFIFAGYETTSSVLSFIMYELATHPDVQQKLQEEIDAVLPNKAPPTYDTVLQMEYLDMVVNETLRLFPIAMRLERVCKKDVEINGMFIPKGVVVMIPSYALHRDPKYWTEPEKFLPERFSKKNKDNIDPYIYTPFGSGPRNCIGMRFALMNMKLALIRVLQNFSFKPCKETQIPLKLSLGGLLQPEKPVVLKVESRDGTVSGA
# T2 sequence (P33261 whole entry): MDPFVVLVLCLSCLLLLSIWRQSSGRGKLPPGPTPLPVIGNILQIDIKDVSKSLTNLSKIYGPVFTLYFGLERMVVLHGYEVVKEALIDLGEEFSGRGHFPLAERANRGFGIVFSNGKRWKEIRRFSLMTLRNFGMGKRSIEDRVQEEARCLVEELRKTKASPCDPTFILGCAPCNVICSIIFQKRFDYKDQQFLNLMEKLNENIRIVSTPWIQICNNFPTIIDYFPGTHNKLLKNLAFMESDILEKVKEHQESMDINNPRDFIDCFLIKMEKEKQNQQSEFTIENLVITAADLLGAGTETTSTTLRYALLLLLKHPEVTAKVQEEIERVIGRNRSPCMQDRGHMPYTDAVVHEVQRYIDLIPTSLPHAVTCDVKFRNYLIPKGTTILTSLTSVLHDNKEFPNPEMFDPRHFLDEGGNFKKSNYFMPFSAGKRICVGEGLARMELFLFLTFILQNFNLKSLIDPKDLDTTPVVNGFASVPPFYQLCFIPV
Compound,(% Activity NADPH T0)/(% Activity NADPH T30) (CYP3A4; [2]),(% Activity NADPH T0)/(% Activity NADPH T30) (CYP3A4; [3]),(% Activity NADPH T0)/(% Activity NADPH T30) (CYP3A4; [4]),(% Activity NADPH T0)/(% Activity NADPH T30) (CYP3A4; [5]),"activity at 30 min, 25 µM (CYP3A4; [2])","activity at 30 min, 50 µM (CYP3A4; [3])","activity at 30 min, 25 µM (CYP3A4; [4])","activity at 30 min, 50 µM (CYP3A4; [5])","activity at 0 min, 25 µM (CYP3A4; [2])","activity at 0 min, 50 µM (CYP3A4; [3])","activity at 0 min, 25 µM (CYP3A4; [4])","activity at 0 min, 50 µM (CYP3A4; [5])","(% Activity NADPH T0)/(% Activity NADPH T30) (CYP2C19; CYP2C19, 25 μM)","(% Activity NADPH T0)/(% Activity NADPH T30) (CYP2C19; CYP2C19, 50 μM)","activity at 30 min, 25 µM (CYP2C19; CYP2C19, 25 μM)","activity at 0 min, 25 µM (CYP2C19; CYP2C19, 25 μM)","activity at 30 min, 50 µM (CYP2C19; CYP2C19, 50 μM)","activity at 0 min, 50 µM (CYP2C19; CYP2C19, 50 μM)","(% Activity NADPH T0)/(% Activity NADPH T30) (CYP2C8; CYP2C8, 25 μM)","(% Activity NADPH T0)/(% Activity NADPH T30) (CYP2C8; CYP2C8, 50 μM)",further results
"Cc1cc(CN2C(=O)CN([C@H]3CC[C@H](C)CC3)C(=O)C23CN(C(N)=O)C3)ccc1F [Compound 6, 5-(4-fluoro-3-methylbenzyl)-8-((1r,4r)-4-methylcyclohexyl)-6,9-dioxo-2,5,8-triazaspiro[3.5]nonane-2-carboxamide]",1.0,0.8,1.3,1.4,89%,86%,76%,63%,89%,72%,95%,89%,1.2,1.1,89%,105%,92%,100%,0.9,1.1,"activity at 30 min, 25 µM (CYP2C8; CYP2C8, 25 μM): 88%; activity at 0 min, 25 µM (CYP2C8; CYP2C8, 25 μM): 79%; activity at 30 min, 50 µM (CYP2C8; CYP2C8, 50 μM): 80%; activity at 0 min, 50 µM (CYP2C8; CYP2C8, 50 μM): 86%; clearance [1]: 9.08 mL/min/kg; Vd [1]: 3.98 L/kg; half-life [1]: 7.11 h"
"CC(C)N1CC(=O)N(Cc2ccc(C(F)(F)F)cc2)C2(CN(c3cccnn3)C2)C1=O [Compound 13, 8-isopropyl-2-(pyridazin-3-yl)-5-(4-(trifluoromethyl)benzyl)-2,5,8-triazaspiro[3.5]nonane-6,9-dione]",1.0,0.7,1.0,0.9,88%,97%,77%,65%,87%,72%,74%,56%,1.0,0.9,108%,108%,119%,113%,1.2,1.0,"activity at 30 min, 25 µM (CYP2C8; CYP2C8, 25 μM): 98%; activity at 0 min, 25 µM (CYP2C8; CYP2C8, 25 μM): 116%; activity at 30 min, 50 µM (CYP2C8; CYP2C8, 50 μM): 106%; activity at 0 min, 50 µM (CYP2C8; CYP2C8, 50 μM): 106%; clearance [1]: 11.5 mL/min/kg; Vd [1]: 3.72 L/kg; half-life [1]: 4.16 h"
"C[C@H]1CC[C@H](N2CC(=O)N(Cc3ccc(Cl)cc3)C3(CN(C(N)=O)C3)C2=O)CC1 [Compound 18, 5-(4-chlorobenzyl)-8-((1r,4r)-4-methylcyclohexyl)-6,9-dioxo-2,5,8-triazaspiro[3.5]nonane-2-carboxamide]",1.8,1.2,1.2,1.1,71%,102%,85%,75%,125%,126%,100%,85%,1.0,1.1,99%,103%,84%,91%,0.7,1.3,"activity at 30 min, 25 µM (CYP2C8; CYP2C8, 25 μM): 100%; activity at 0 min, 25 µM (CYP2C8; CYP2C8, 25 μM): 65%; activity at 30 min, 50 µM (CYP2C8; CYP2C8, 50 μM): 76%; activity at 0 min, 50 µM (CYP2C8; CYP2C8, 50 μM): 100%; clearance [1]: 7.07 mL/min/kg; Vd [1]: 4.29 L/kg; half-life [1]: 9.08 h"
